The results in this text go back to ChEMBL document CHEMBL3351389, “Identification of novel inhibitors of phospho-MurNAc-pentapeptide translocase MraY from library screening: Isoquinoline alkaloid michellamine B and xanthene dye phloxine B” (Bioorg Med Chem, 2014).

Assay [1] has as its target T1, Phospho-N-acetylmuramoyl-pentapeptide-transferase (Escherichia coli) (UniProt E2QF15).
T1 sequence (whole entry): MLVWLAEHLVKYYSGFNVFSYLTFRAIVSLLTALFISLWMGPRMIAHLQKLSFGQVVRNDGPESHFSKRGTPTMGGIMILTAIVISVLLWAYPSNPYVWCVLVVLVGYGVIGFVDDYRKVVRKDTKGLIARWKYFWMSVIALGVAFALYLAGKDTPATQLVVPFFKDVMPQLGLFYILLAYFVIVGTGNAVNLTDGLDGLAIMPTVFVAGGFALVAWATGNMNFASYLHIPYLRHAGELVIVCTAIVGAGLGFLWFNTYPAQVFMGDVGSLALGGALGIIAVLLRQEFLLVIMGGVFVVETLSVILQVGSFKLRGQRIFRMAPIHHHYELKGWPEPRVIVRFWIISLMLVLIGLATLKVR
As to the kind of experiment: Inhibition of recombinant MraY overexpressed in Escherichia coli membranes at 25 ug/ml by continuous fluorescence assay. Type of assay: cell membranes.

The target of assay [2] is T1, Phospho-N-acetylmuramoyl-pentapeptide-transferase (Escherichia coli). As to the kind of experiment: Inhibition of recombinant MraY overexpressed in Escherichia coli membranes after 30 mins by radiochemical assay in presence of [14C-D-Ala]-UDPMurNAc-pentapeptide. Type of assay: cell membranes.
The test system of assay [3] is Escherichia coli. Put plainly: Inhibition of recombinant Escherichia coli MurG at 50 ug/ml after 30 mins by radiochemical assay in presence of [3H]-UDPGlcNAc.
The target in assay [4] is T2, Phospho-N-acetylmuramoyl-pentapeptide-transferase (Escherichia coli, UniProt E2QF15).
T2 sequence (E2QF15 whole entry): T1 sequence (whole entry)
As to the kind of experiment: Inhibition of recombinant MraY overexpressed in Escherichia coli membranes by continuous fluorescence assay. The format is cell membranes.

The nature of assay [5]: Inhibition of MraY in Bacillus subtilis membranes by continuous fluorescence assay. Type of assay: cell membranes.
A short description of assay [6]: Inhibition of MraY in Pseudomonas aeruginosa membranes by continuous fluorescence assay. The format is cell membranes.
The nature of assay [7]: Inhibition of MraY in Staphylococcus aureus membranes by continuous fluorescence assay. The format is cell membranes.
Assay [8] can be described thus: Inhibition of MraY in Micrococcus flavus membranes by continuous fluorescence assay. Type of assay: cell membranes.
In assay [9] the test system is Escherichia coli. Put plainly: Inhibition of recombinant Escherichia coli MurG at 500 ug/ml after 30 mins by radiochemical assay in presence of [3H]-UDPGlcNAc.
In the next assay the test system is Pseudomonas aeruginosa. Put plainly: Inhibition of MraY in Pseudomonas aeruginosa membranes at 500 uM by continuous fluorescence assay. Type of assay: cell membranes.
The test system of the next assay is Staphylococcus aureus. Put plainly: Inhibition of MraY in Staphylococcus aureus membranes at 500 uM by continuous fluorescence assay. Type of assay: cell membranes.
In assay [10] the test system is Micrococcus flavus. Put plainly: Inhibition of MraY in Micrococcus flavus membranes at 500 uM by continuous fluorescence assay. The format is cell membranes.
The next assay deals with Bacillus subtilis. Put plainly: Antimicrobial activity against Bacillus subtilis W23 by liquid culture microtitre plate assay. Type of assay: functional.
Assay [11] deals with Escherichia coli. Put plainly: Antimicrobial activity against Escherichia coli DH5[alpha] at 1.95 to 125 ug/ml by liquid culture microtitre plate assay. The format is functional, organism-based.
The target in assay [12] is T1, Phospho-N-acetylmuramoyl-pentapeptide-transferase (Escherichia coli). As to the kind of experiment: Inhibition of recombinant MraY overexpressed in Escherichia coli membranes at 100 uM after 30 mins by radiochemical assay in presence of [14C-D-Ala]-UDPMurNAc-pentapeptide. The format is cell membranes.
Assay [13] has the same target. Put plainly: Inhibition of recombinant MraY overexpressed in Escherichia coli membranes at 500 uM after 30 mins by radiochemical assay in presence of [14C-D-Ala]-UDPMurNAc-pentapeptide. Type of assay: cell membranes.
The next assay concerns Pseudomonas putida. Put plainly: Antimicrobial activity against Pseudomonas putida ATCC 33015 at 1.95 to 125 ug/ml by liquid culture microtitre plate assay. The format is functional, organism-based.
Assay [14] deals with Micrococcus flavus. As to the kind of experiment: Antimicrobial activity against Micrococcus flavus at 1.95 to 125 ug/ml by liquid culture microtitre plate assay. The format is functional, organism-based.

In brackets after ≈: the same amount, converted by molar mass. Activity calls are given as the source filed them. No cut-off for these calls is given here.

For `CC(=O)N[C@H]1[C@@H](O[C@@H]2O[C@H](CC(O)[C@H]3O[C@@H](n4ccc(=O)[nH]c4=O)[C@H](O)[C@@H]3O)[C@H](O)[C@H](O)[C@H]2NC(=O)/C=C/CC(C)C)O[C@H](CO)[C@@H](N)[C@@H]1O` (stereo partly drawn), in [1], the inhibition (as a rule, the drop in the measured response relative to a control, in per cent) is over 95%.
For `O=C(O)c1ccccc1-c1c2cc(Br)c(=O)cc-2oc2cc(O)c(Br)cc12`, the inhibition result in assay [2] was “inactive”.
On the same count and under the same terms, to `O=C(O)c1ccccc1-c1c2cc(Cl)c(=O)cc-2oc2cc(O)c(Cl)cc12` belongs “inactive”.
With RAMOPLANIN, the inhibition in the assay on Escherichia coli [3] is over 80%.
For `O=C(O)c1c(Cl)c(Cl)c(Cl)c(Cl)c1-c1c2cc(Br)c(=O)c(Br)c-2oc2c(Br)c(O)c(Br)cc12`, the IC50 (commonly the concentration needed to halve the response being measured) in assay [4] worked out at 32 µM; in assay [5], 165 µM; in assay [6], 128 µM; in assay [7], 254 µM; in [8] it was 195 µM. The inhibition result in [2] is “Active”. The inhibition result in the assay with Escherichia coli [9] is “inactive”.
For `COc1cc(C)cc2c(-c3c(O)cc(O)c4c3C[C@@H](C)N[C@@H]4C)cc(-c3cc(-c4c(O)cc(O)c5c4C[C@@H](C)N[C@@H]5C)c4cc(C)cc(OC)c4c3O)c(O)c12` [MICHELLAMINE A], the IC50 in assay [4] is 456 µM; in assay [5], 386 µM. In addition, the inhibition with Pseudomonas aeruginosa stood at 38%; in the assay on Staphylococcus aureus, 0%; in the assay on Micrococcus flavus [10], 14%; in [12], 20%; in assay [13], 60%. For the same molecule, inhibition of growth with Bacillus subtilis (MIC) required 16 µg/mL (≈ 21.1 µM). The outcome with Escherichia coli [11], with Pseudomonas putida and in the assay with Micrococcus flavus [14] was inactive. In the assay with Escherichia coli [9], the inhibition entry is “inactive”.
